Laboratory results reported in US12465614B2, “Budesonide 21-phosphate salts and pharmaceutical compositions containing the same” (GENETIC S.P.A., priority 2020, dated 2025).
Entries after “also recorded” stand apart in the source; their conditions may differ.

What was measured:
Type in all cases: in vivo
[1] = system: mice with OVA-induced allergic asthma; test: BAL fluid cell counts (Experimental Groups II); settings: for total leukocytes in BAL fluid: vs untreated OVA group
Description: (§1) Male Balb/c SPF mice (25*2 g, 6-week-old) were purchased from the animal house facilities at the São Paulo School of Medicine (Federal University of São Paulo, Brazil). They were group-housed in a temperature-controlled room at 22° C. with a 12/12-hour light/dark cycle and allowed free access to food and water. The study is in agreement with the Ethical Principles for Animal Research established by the Brazilian College for Animal Experimentation (COBEA). According to the internal laboratory rules, euthanasia is performed if severe distress related to the test agents developed during the experiment. […] The compounds were dissolved in DMSO (Sigma Chemical Co., St. Louis, MO) at concentrations at which the determined dose per animal results from the intraperitoneal administration of 100 μl of solution (1:10 DMSO) and intra-nasal (i.n.) administration of 10 μl/animal (5 μl/nostril) of the solutions. Mice were sensitized with two subcutaneous injections of 0.4 ml of OVA/Al(OH)3, with an interval of 7 days (Sham animals received the Al(OH)3 suspension in PBS with no OVA). Seven days after the second sensitization (i.e., 3rd week), the animals were nebulized twice a week with the 1% OVA solution (Sham and untreated OVA groups were nebulized with PBS) during 20 minutes for the next 2 weeks. Sixty minutes before the challenges (OVA nebulization) and daily during the next 4 weeks, mice were intra-nasally treated (10 μl/animal as 5 μl/nostril) with the respective compounds/vehicle. After Penh evaluation, the mice were anesthetized with inhaled isofluorane (5% v/v in O2) and blood samples were collected from the descending abdominal aorta. The mice were then euthanized by exsanguination (blood samples were collected from each animal for leukocyte cell counting), and bronchoalveolar lavage (BAL) was performed by exposing and cannulating the trachea with a polyethylene tube (1 mm outer diameter) connected to a syringe. The lungs were washed by flushing 300 μL of heparin-containing PBS solution (20 Ul/mL). The retrieved BAL lavage aliquots were obtained, and the same procedure was repeated four additional times. The samples were submitted to centrifugation (1000 g for 10 min) and the cell pellet was resuspended in 200 μL of PBS solution. Total cell counts were determined using a Neubauer chamber, and differential counting was carried out in cytospin (Fanem Mod 2400; São Paulo, Brazil) preparations stained with May-Grünwald dye. Leukocytes were classified based on normal morphological criteria.

[2] = system: IgE; test: Plasma IgE levels in OVA-sensitized mice, ELISA (Experimental Groups I); settings: 1 mg/Kg i.p.; vs OVA group; FIG. 10 panel C
Description: Female Balb/c (8-week-old, Charles River, Calco, Italy) were housed in the animal care facility of the Department of Pharmacy of the University of Naples, Italy in a controlled environment (temperature 21±2° C. and humidity 60±10%) and provided with standard rodent chow and water. All animals were allowed to acclimate for four days prior to experiments and were subjected to 12 h light−12 h dark schedule. Experiments were conducted during the light phase. The experimental procedures were approved by the Italian Ministry according to International and National law and policies (EU Directive 2010/63/EU and Italian DL 26/2014 for animal experiments). […] The compounds were dissolved in DMSO (Sigma Chemical Co., St. Louis, MO) at concentrations at which the determined dose per animal results from the intraperitoneal administration of 100 μl of solution (1:10 DMSO) and intra-nasal (i.n.) administration of 10 μl/animal (5 μl/nostril) of the solutions. […] Plasma levels of IgE were measured as index of sensitization. […] Total IgE levels were measured by means of ELISA using matched antibody pairs (BD Biosciences Pharmingen San Jose, CA).

[3] = system: mice with OVA-induced allergic asthma; test: Lung hyperreactivity/Penh function, whole body plethysmography, intra-nasal FB, F, B (Experimental Groups II); settings: i.n. daily 2 weeks, all tested doses: FB 0.3, 1.0, 3.0 nmol/animal, vs untreated OVA group
[4] = system: OVA-sensitized mice; test: Bronchial relaxation to salbutamol, isolated bronchi of OVA-sensitized mice (Experimental Groups I); settings: 1 mg/Kg i.p.; rings precontracted with carbachol; vs OVA group; FIG. 10B
[5] = system: OVA-sensitized mice; settings: mouse, in vivo
[6] = system: mice with OVA-induced allergic asthma; test: Circulating leukocyte cell counts (Experimental Groups II)
Description: as §1

[7] = i.n., all treatments: FB 0.3, 1.0, 3.0 nmol/animal, F and B 3.0 nmol/animal

Molecule: Budesonide 21-phosphate formoterol salt [FB]
- total leukocytes in BAL fluid ([1]; 0.3 nmol/animal i.n.): significantly reduced
- OVA-induced increase of BAL macrophages ([1]; 3 nmol/animal i.n.): abolished the OVA-induced increase of BAL macrophages
- total leukocytes in BAL fluid ([1]; 3 nmol/animal i.n.): significantly reduced
- eosinophils in BAL samples [1, 7]: significantly controlled
- OVA induced increase of IgE plasma levels [2]: significantly reduced OVA induced increase of IgE plasma levels
- area under the Penh-metacholine concentration curve (AUC) ([3]; B 3.0 nmol/animal): significantly reduced Penh at all the MCh doses tested; also recorded: abolished
- Penh maximal response Emax to inhaled metacholine ([3]; F and B 3.0 nmol/animal): Significant reduction of the maximal response Emax; also recorded: abolished
- bronchial relaxation to salbutamol [4]: significantly increased bronchial relaxation
- bronchial hyperreactivity (increased response of isolated bronchi to carbachol) [5]: Significant reduction of the bronchial hyperreactivity
- circulating macrophages ([6]; 0.3 nmol/animal i.n.): potent lowering effect
- total leukocytes in blood samples ([6]; 3 nmol/animal i.n., vs untreated OVA group): significantly reduced; also recorded: almost abolished
- circulating lymphocytes ([6]; 3 nmol/day i.n., vs untreated allergic animals): lower number of circulating cells than the untreated allergic animals
- circulating eosinophils vs control Sham animals ([6]; highest dose (3 nmol/animal i.n.)): even lower than in the control Sham animals
- circulating macrophages ([6]; i.n., FB all tested doses (0.3, 1.0, 3.0 nmol/animal), B and F 3 nmol/animal): significantly reduced the number of macrophages; also recorded: reduced the number of these cells to values lower than those observed in the control animals
- circulating eosinophils [6, 7]: decreased by FB treatment at all the tested doses

Molecule: COc1ccc(CC(C)NCC(O)c2ccc(O)c(NC=O)c2)cc1 (stereo not shown) [F, N-[2-hydroxy-5-[1-hydroxy-2-[[2-(p-methoxyphenyl)-2-propy]-amino]-ethyl]-phenyl]-formamide, reference compound]
- bronchial relaxation to salbutamol [4]: did not ameliorate the lack of bronchial response to salbutamol
